Assay results from patent US6932990B2, “Carbohydrate absorption inhibitor and method for manufacturing the same” (Oryza Oil & Fat Chemical Co., Ltd., priority 2000, dated 2005).
In brackets after ≈: the same amount, converted by molar mass. Where two headings read alike, the source gives them in different places.

Experiments:
[1] = target: α-glucosidase (acetone powder in the intestinal canal of rat); assay: α-glucosidase inhibitory activity (4-methylumbelliferyl-α-D-glucoside, fluorometry); type: biochemical
Experimental: Next, α-glucosidase inhibitory activity (%) in regard to the embodiment 1 (evening primrose seed extract) was identified by the following method. As for the α-glucosidase for this measurement, 0.1 mol maleic acid buffer solution (pH 6.0) was added to the acetone powder in the intestinal canal of rat (SIGMA CHEMICAL CO.) and homogenized in ice by using a glass homogenizer, and then centrifugalized supernatant was diluted 20 times. Measuring method is shown below. […] After that, the reaction was suspended by adding 3 ml glycin buffer solution (pH 10.3) and the quantity of the isolated 4-methylumbelliferyl was determined by using a fluorometer (excitation wavelength: 366 nm & fluorescent wavelength: […]). Enzyme activity was calculated based on this determined value and inhibitory activity (%) was calculated by the following formula. […] Inhibitory activity (%)=100−Enzyme activity (%)

[2] = target: T1, α-amylase derived from pancreas of pig (Sus scrofa, UniProt P00690); assay: Inhibitory activity against α-amylase derived from pancreas of pig (same method); type: biochemical
T1 construct: the α-amylase derived from pancreas of pig; from tissue; host or cells: pig pancreas
T1 sequence (P00690 16-511): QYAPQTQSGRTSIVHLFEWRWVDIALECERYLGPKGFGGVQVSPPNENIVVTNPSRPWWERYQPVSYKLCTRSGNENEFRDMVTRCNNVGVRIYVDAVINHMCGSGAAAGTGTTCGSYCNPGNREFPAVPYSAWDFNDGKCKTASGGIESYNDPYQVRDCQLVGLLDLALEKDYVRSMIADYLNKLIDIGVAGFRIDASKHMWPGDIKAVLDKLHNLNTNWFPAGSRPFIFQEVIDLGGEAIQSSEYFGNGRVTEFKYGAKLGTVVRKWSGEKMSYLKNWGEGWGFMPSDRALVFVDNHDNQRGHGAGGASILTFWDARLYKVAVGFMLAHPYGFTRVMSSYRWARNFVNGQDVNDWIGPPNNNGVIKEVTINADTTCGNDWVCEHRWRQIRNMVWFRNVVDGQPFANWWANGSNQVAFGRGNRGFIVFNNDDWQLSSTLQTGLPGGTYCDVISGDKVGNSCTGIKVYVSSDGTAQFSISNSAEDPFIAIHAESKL

Row | Compound | IC50 (50% inhibitory concentration) against α-glucosidase [1] | IC50 ([2]; read-out: IC50 against the α-amylase derived from pancreas of pig (converted)) | IC50 [2]
1 | O=c1oc2c(O)c(O)cc3c(=O)oc4c(O)c(O)cc1c4c23 [Ellagic acid] | >80 µg/mL | – | –
2 | Catechin | 800 µg/mL | – | –
3 | O=C(OC[C@H]1O[C@@H](OC(=O)c2cc(O)c(O)c(O)c2)[C@H](OC(=O)c2cc(O)c(O)c(O)c2)[C@@H](OC(=O)c2cc(O)c(O)c(O)c2)[C@@H]1OC(=O)c1cc(O)c(O)c(O)c1)c1cc(O)c(O)c(O)c1 [Pentagalloylglucose] | – | 21.3 µM | –
4 | O=C(O)c1cc(O)c(O)c(O)c1 [Gallic acid] | 800 µg/mL (≈ 4700 µM) | – | 2350 µM
